Laboratory results: patent publication US20030082101A1, “Accelerators for increasing the rate of formation of free radicals and reactive oxygen species” (Cavalier Discovery, priority 2001, published 2003)

Tests used:
deoxyribose [1] = test: TBARS assay, chelants during ultrasound exposure, ferrous iron (Example 1); format: biochemical; details: 0.025 mM ferrous iron, 0.03-0.04 mM chelant, 0.01% hydrogen peroxide, pH 7.5, 30 W 2 MHz 10 min
Method: (§1) The following example uses the thiobarbituric acid-reactive substances (TBARS) assay to identify chelants that enhance radical production during ultrasound exposure. All solutions were prepared in pH 7.5 phosphate buffer containing approximately 2 mM deoxyribose, 0.01% hydrogen peroxide, 0.025 mM ferrous iron, and 0.03-0.04 mM chelant. Solutions were sonicated at 30 W, 2 MHz, 32-34 degrees Celsius for ten minutes using a PZT-8 1.8 cm diameter custom transducer. The sonicated solution was placed on an orbit shaker rotating at 25 RPM to ensure even sonication of the solution while the transducer was held stationary. Control solutions were placed in a controlled temperature bath at 32-34 degrees Celsius without sonication. After 10 minutes of treatment, 1 mL test solution was placed in a test tube followed by 2 mL of 1% 2-thiobarbituric acid and 2 mL of 2.8% trichloroacetic acid. The test tube was sealed and heated to 90 degrees Celsius for 30 minutes and allowed to cool to room temperature for 20 minutes. The absorbance at 532 nm was measured. The enhanced radical production during ultrasound exposure is determined by comparing the amount of deoxyribose degradation that occurs in the sonicated solution versus the control solution using the following equation: [formula]

deoxyribose [2] = test: TBARS assay, chelants during ultrasound exposure, ferric iron (Example 2); format: biochemical; details: 0.02-0.03 mM ferric iron, 0.04-0.05 mM chelant, 0.01% hydrogen peroxide, pH 7.5, 30 W 2 MHz 10 min
Method: as §1, with “0.02-0.03” for “0.025”, “ferric” for “ferrous”, “0.04-0.05” for “0.03-0.04”, “was” for “is”

deoxyribose [3] = test: TBARS assay, additives in solutions containing iron or iron plus a chelant, ultrasound (Example 5); format: biochemical; details: 0.08-0.1 mM ferric iron; EDTA 0.15 mM; 30 W 2 MHz 10 min
Method: The following example uses the thiobarbituric acid-reactive substances (TBARS) assay to identify compounds that enhance radical production during ultrasound exposure of solutions containing iron or iron plus a chelant. All solutions were prepared in pH 7.5 phosphate buffer containing approximately 2 mM deoxyribose, 0.01% hydrogen peroxide, 0.08-0.1 mM ferric iron, and the additives indicated in the table below. Solutions were sonicated at 30 W, 2 MHz, 32-34 degrees Celsius for ten minutes using a PZT-8 1.8 cm diameter custom transducer. The sonicated solution was placed on an orbit shaker rotating at 25 RPM to ensure even sonication of the solution while the transducer was held stationary. Control solutions were placed in a controlled temperature bath at 32-34 degrees Celsius without sonication. […] The test tube was sealed and heated to 90 degrees Celsius for 30 minutes and allowed to cool to room temperature for 20 minutes. The absorbance at 532 nm was measured. The enhanced radical production during ultrasound exposure was determined by comparing the amount of deoxyribose degradation that occurs in the sonicated solution versus the control solution using the following equation: [formula]

[4] = on chelation of iron; cited from earlier work

In the case of `O=C(O)CN(CCN(CC(=O)O)CC(=O)O)CC(=O)O` [Ethylenediaminetetraacetic acid], the “% Ultrasound Mediated Activity vs Control” value (deoxyribose [1]) is reported as 64%, the “% Ultrasound Mediated Activity vs Control” value (deoxyribose [2]) is reported as 575% and the “% Ultrasound Mediated Activity vs Control” value (deoxyribose [3]) is reported as 277%. For the same molecule, the “lowering of the redox potential of Fe(III)/Fe(II)” value [4] was 0.65 V.
